Structures are written as SMILES. Read-outs that look alike come from different tables or passages of the source. A value given as a limit tells only on which side of the number the result lay.

The test system of this test is PMA-differentiated THP-1 cells. The experiment in a line: IL-1β production in PMA-differentiated THP-1 cells stimulated with gramicidin (hTHP-1 assay containing 2% fetal bovine serum; Procedures 1 and 2). Format: cell-based, human. To be noted: 2% fetal bovine serum. The essentials: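 Secreted IL-1β, read by HTRF, after gramicidin challenge (5 μM, 2 h) of THP-1 cells differentiated with PMA (20 ng/ml, 16-18 h) and plated at 50,000 cells/well in 2% FBS medium. Compounds, 0.0017-100 μM final with 0.37% DMSO, were added 1 h before stimulation.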

Setting [1] is: Table B1, class symbols, read-out: Average IC50 of compounds in hTHP-1 assay: hTHP-1 IC50.
[2] abbreviates: Homo sapiens, THP-1, Table B2, numeric bounds, read-out: hTHP-1 IC50.
Setting [3] is: Table B2, class symbols, read-out: hTHP-1 IC50.
The mark [4] stands for this setting: Homo sapiens, THP-1, Table B3, hTHP-1 assay, class symbols, read-out: IC50.
Setting [5] is: Homo sapiens, THP-1, Table B2, class symbols, read-out: hTHP-1 IC50.
The mark [6] stands for this setting: Homo sapiens, THP-1, Table B3, hTHP-1 assay, numeric values, read-out: IC50.
Where [7] appears, read: Homo sapiens, THP-1, Table B1, numeric bounds, read-out: Average IC50 of compounds in hTHP-1 assay: hTHP-1 IC50.

Turning to `CC(C)(O)c1csc(S(N)(=O)=NC(=O)Nc2c3c(nc4c2CCC42CC2)CCC3)c1` (single isomer, unassigned) [Compound 114b, (S) or (R)-4-(2-hydroxy-propan-2-yl)-N′-((1′,5′,6′,7′-tetrahydro-2′H-spiro[cyclopropane-1,3′-dicyclopenta[b,e]pyridin]-8′-yl)carbamoyl)thiophene-2-sulfonimidamide], under setting [1], the concentration for half-maximal inhibition (IC50) was 1 to 5 µM.

`CC(C)c1cc(NC(=O)N=S(N)(=O)c2cc(C(C)(C)O)cs2)c2c(n1)CCC2` (single isomer, unassigned) [Compound 182a, (S) or (R)-4-(2-Hydroxypropan-2-yl)-N′-((2-isopropyl-6,7-dihydro-5H-cyclopenta[b]pyridin-4-yl)carbamoyl) thiophene-2-sulfonimidamide]: the 50% inhibitory concentration (IC50) under setting [2] was more than 30 µM.

`CCc1c(C(F)(F)F)nc2c(c1NC(=O)N=S(N)(=O)c1cc(C(C)(C)O)cs1)CCC2` (single isomer, unassigned) [Compound 698a, (S) or (R)-N′-((3-ethyl-2-(trifluoromethyl)-6,7-dihydro-5H-cyclopenta[b]pyridin-4-yl)carbamoyl)-4-(2-hydroxypropan-2-yl)thiophene-2-sulfonimidamide]: the IC50 under setting [3] lay in the range of 1 to 5 µM. Regarding `Cc1c(C2(F)CC2)nc2c(c1NC(=O)N=S(N)(=O)c1sc(C(C)(C)O)cc1F)CCC2` (single isomer, unassigned) [Example 685, (R) or (S)-3-fluoro-N′-((2-(1-fluorocyclopropyl)-3-methyl-6,7-dihydro-5H-cyclopenta [b]pyridin-4-yl)carbamoyl)-5-(2-hydroxypropan-2-yl) thiophene-2-sulfonimidamide], the half-inhibitory concentration (IC50) under setting [4] is 0.2 to 1 µM. As for `CC(C)c1cnc(F)c(C(C)C)c1NC(=O)N=S(N)(=O)c1cnc(C(C)(C)O)s1` (single isomer, unassigned) [Compound 115b, (R) or (S)-N′-((2-fluoro-3,5-diisopropylpyridin-4-yl)carbamoyl)-2-(2-hydroxypropan-2-yl)thiazole-5-sulfonimidamide], under setting [3], the IC50 lay in the range of 1 to 5 µM.

Consider `CC(C)(O)c1csc(S(N)(=O)=NC(=O)Nc2cc(C3CC3)nc3c2CCC3)c1` (single isomer, unassigned) [Compound 176b, (R) or (S)-N′-((2-cyclopropyl-6,7-dihydro-5H-cyclopenta[b]pyridin-4-yl)carbamoyl)-4-(2-hydroxypropan-2-yl)thiophene-2-sulfonimidamide], for which, under setting [5], the IC50 lay within 1 to 5 µM. As for `Cc1c(C2CC2)nc2c(c1NC(=O)N=S(N)(=O)c1cnc(C(C)(C)O)s1)CCC2` (single isomer, unassigned) [Compound 124a, (S) or (R)-N′-((2-cyclopropyl-3-methyl-6,7-dihydro-5H-cyclopenta[b]pyridin-4-yl)carbamoyl)-2-(2-hydroxypropan-2-yl)thiazole-5-sulfonimidamide], the half-inhibitory concentration (IC50) under setting [1] was 5 to 30 µM.

For the compound `CC(C)(O)c1ncc(S(N)(=O)=NC(=O)Nc2cc(C(F)F)nc3c2CCC3)s1` (stereo not shown) [Example 614, N′-((2-(difluoromethyl)-6,7-dihydro-5H-cyclopenta[b]pyridin-4-yl)carbamoyl)-2-(2-hydroxypropan-2-yl)thiazole-5-sulfonimidamide], under setting [6], the half-maximal inhibitory concentration (IC50) was more than 30 µM.

Consider `CCc1nc2c(c(NC(=O)N=S(N)(=O)c3sc(C(C)(C)O)cc3F)c1C1CC1)CCC2` (single isomer, unassigned) [Compound 631b, (R) or (S)-N′-((3-cyclopropyl-2-ethyl-6,7-dihydro-5H-cyclopenta[b]pyridin-4-yl)carbamoyl)-3-fluoro-5-(2-hydroxypropan-2-yl)thiophene-2-sulfonimidamide], for which the IC50 under setting [3] was 0.04 to 0.2 µM. Consider `N[S@](=O)(=NC(=O)Nc1c2c(nc(C3CC3)c1C1CC1)CCC2)c1ccn(C(F)F)n1` [Compound 728a], for which, under setting [5], the IC50 was in the range of 5 to 30 µM. Turning to `CC1CCc2c1nc1c(c2NC(=O)N=S(N)(=O)c2cnn(C(C)C)c2)CCC1` (single isomer, unassigned) [Compound 171b, (R, S) and (R, R) or (S, R) and (S, S)-1-Isopropyl-N′-((3-methyl-1,2,3,5,6,7-hexahydrodicyclopenta [b,e]pyridin-8-yl)carbamoyl)-1H-pyrazole-4-sulfonimidamide], under setting [3], the IC50 lay in the range of 5 to 30 µM. Take `CN(C)Cc1ccc(S(=O)(=NC(=O)Nc2c3c(nc4c2CCC4)CCC3)NC(=O)OC(C)(C)C)cc1` (stereo not shown) [Compound 113, tert-butyl (4-((dimethylamino)methyl)-N-((1,2,3,5,6,7-hexahydrodicyclopenta[b,e]pyridin-8-yl)carbamoyl)phenylsulfonimidoyl)carbamate]: the IC50 under setting [7] was more than 30 µM. The same measure, in the same setting: to `CN(C)Cc1ccc(S(N)(=O)=NC(=O)Nc2c3c(nc4c2CCC4(C)C)CCC3)cc1` (single isomer, unassigned) [Compound 125a, (S) or (R)-N′-((3,3-dimethyl-1,2,3,5,6,7-hexahydro-dicyclopenta[b,e]pyridin-8-yl)carbamoyl)-4-((dimethylamino)meth-yl)benzene-sulfonimidamide] belongs more than 30 µM. On to `CC1(C)CCc2nc3c(c(NC(=O)N=S(N)(=O)c4ccc([C@](C)(O)COCCOCc5ccccc5)s4)c21)CCC3` (stereo partly drawn) [Example 625, 5-((R)-1-(2-(benzyloxy)ethoxy)-2-hydroxypropan-2-yl)-N′-((1,1-dimethyl-1,2,3,5,6,7-hexahydrodicyclopenta[b,e]pyridin-8-yl)carbamoyl)thiophene-2-sulfonimidamide], for which, under setting [4], the IC50 lay in the range of 1 to 5 µM. For the compound `CC1CCc2c1nc1c(c2NC(=O)N=S(N)(=O)c2cc(C(C)(C)O)n(-c3ccccc3)n2)CCC1` (single isomer, unassigned) [Compound 664a, (S) or (R)-5-(2-Hydroxypropan-2-yl)-N′-((3-methyl-1,2,3,5,6,7-hexahydrodicyclopenta [b,e]pyridin-8-yl)carbamoyl)-1-phenyl)-1-pyrazole-3-sulfonimidamide], the IC50 under setting [2] was more than 30 µM. As for `CC(C)c1nc(CO)c(S(N)(=O)=NC(=O)Nc2c3c(nc4c2CCC4(C)C)CCC3)s1` (stereo not shown) [Compound 680, N′-((3,3-dimethyl-1,2,3,5,6,7-hexahydrodicyclopenta[b,e]pyridin-8-yl)carbamoyl)-4-(hydroxymethyl)-2-isopropylthiazole-5-sulfonimidamide], the half-inhibitory concentration (IC50) under setting [5] was in the range of 1 to 5 µM. Take `CO[C@H]1COc2c(S(N)(=O)=NC(=O)Nc3c(C)c(C(F)(F)F)nc4c3CCC4)cnn2C1` (single isomer, unassigned) [Example 655, (S) or (R)-(6R)-6-methoxy-N′-((3-methyl-2-(trifluoromethyl)-6,7-dihydro-5H-cyclopenta[b]pyridin-4-yl)carbamoyl)-6,7-dihydro-5H-pyrazolo[5,1-b][1,3] oxazine-3-sulfonimidamide]: the IC50 under setting [6] is more than 30 µM. As for `CCn1cc(F)c(S(N)(=O)=NC(=O)Nc2c3c(nc(C(F)(F)F)c2C2CC2)CCC3)n1` (stereo not shown) [Compound 983], the IC50 under setting [4] lay within 0.04 to 0.2 µM. Regarding `CC(C)(O)c1sc(S(N)(=O)=NC(=O)Nc2c3c(nc4c2CCC4)CCC3)cc1F` (stereo not shown) [Compound 177, 4-fluoro-N′-((1,2,3,5,6,7-hexahydrodicyclopenta[b,e]pyridin-8-yl)carbamoyl)-5-(2-hydroxypropan-2-yl)thiophene-2-sulfonimidamide], the IC50 (Homo sapiens, THP-1, Table B1, class symbols, read-out: Average IC50 of compounds in hTHP-1 assay: hTHP-1 IC50) lay in the range of 5 to 30 µM.

As for `Cc1nc(C(C)(C)O)ccc1S(N)(=O)=NC(=O)Nc1c2c(nc3c1CCC3)CCC2` (single isomer, unassigned) [Compound 157a, (S) or (R)-N′-((1,2,3,5,6,7-hexahydrodicyclo-penta[b,e]pyridin-8-yl)carbamoyl)-6-(2-hydroxypropan-2-yl)-2-methylpyridine-3-sulfonimidamide], under setting [7], the IC50 is more than 30 µM.

With `Cc1c(C(F)(F)F)nc2c(c1NC(=O)N=S(N)(=O)c1sc(C(C)(C)O)cc1F)CCC2` (single isomer, unassigned) [Compound 632a, (R) or (S)-3-Fluoro-5-(2-hydroxypropan-2-yl)-N′-((3-methyl-2-(trifluoromethyl)-6,7-dihydro-5H-cyclopenta[b]pyridin-4-yl)carbamoyl) thiophene-2-sulfonimidamide], the concentration for half-maximal inhibition (IC50) under setting [3] was 0.04 to 0.2 µM. For the compound `CCn1cc(F)c(S(N)(=O)=NC(=O)Nc2c(C)c(CC(F)(F)F)nc3c2CCC3)n1` (single isomer, unassigned) [Example 717, (R) or (S)-1-ethyl-4-fluoro-N′-((3-methyl-2-(2,2,2-trifluoroethyl)-6,7-dihydro-5H-cyclopenta[b]pyridin-4-yl)carbamoyl)-1H-pyrazole-3-sulfonimidamide], the 50% inhibitory concentration (IC50) under setting [4] was 1 to 5 µM. For `CCn1ccc(S(N)(=O)=NC(=O)Nc2c3c(nc4c2CCC42CC2)CCC3)n1` (stereo not shown) [Compound 604, 1-Ethyl-N′-((1′,5′,6′,7′-tetrahydro-2′H-spiro[cyclopropane-1,3′-dicyclopenta[b,e]pyridin]-8′-yl)carbamoyl)-1H-pyrazole-3-sulfonimidamide], the half-maximal inhibitory concentration (IC50) under setting [5] fell in the range of 0.2 to 1 µM.

For `CC(C)c1nc2c(cc1NC(=O)N=S(N)(=O)c1cnc(C(C)(C)O)s1)CCC2` (stereo not shown) [Compound 601, 2-(2-Hydroxypropan-2-yl)-N′-((2-isopropyl-6,7-dihydro-5H-cyclopenta[b]pyridin-3-yl)carbamoyl)thiazole-5-sulfonimidamide], under setting [5], the concentration for half-maximal inhibition (IC50) is 5 to 30 µM. Take `C[C@H]1CCc2c1nc1c(c2NC(=O)N=S(N)(=O)c2cnc([C@@](C)(O)CO)s2)CCC1` (single isomer, unassigned) [Example 729]: the IC50 (Homo sapiens, THP-1, Table B4, class symbols, read-out: hTHP-1 IC50) fell in the range of 1 to 5 µM.

(Values after patent US20230031406A1, “COMPOUNDS AND COMPOSITIONS FOR TREATING CONDITIONS ASSOCIATED WITH NLRP ACTIVITY” (Novartis AG, priority 2018, published 2023).)
